# Experimental data as given in PMC9154192 (PLoS Biology, 2022).
# Several values for one entry are separate records, joined by “and”; a condition that tells them apart may be missing. Equal values may be shown once. Read-outs that look alike come from different tables or passages of the source.
# Tests used:
# M. tuberculosis H37Rv [1] = format: cell-based, Mycobacterium tuberculosis; details: for RFU/200 μl (replicates1-3), single values / RFU/ml (×104) / RFU/200 μl (average): Fig 2A
# XDR M. tuberculosis [2] = format: cell-based, Mycobacterium tuberculosis
# M. tuberculosis H37Rv [3] = test: Luminescence-based microbial cell viability assay; set-up: species or system Mycobacterium tuberculosis; details: for RLU/50ul (replicates1-3), single values / RLU/ml (×100) / RLU/50ul (average): Fig 2C
# XDR M. tuberculosis [4] = format: cell-based, Mycobacterium tuberculosis; remark: listed apart in the source
# M. tuberculosis H37Rv [5] = format: in vivo, BALB/c mice; details: for Efficacy in BALB/C mouse model of pulmonary tuberculosis, Average: Fig 4A
# M. tuberculosis H37Rv [6] = format: in vivo, BALB/c mice; set-up: Efficacy in BALB/C mouse model of pulmonary tuberculosis, Average / Efficacy in BALB/C mouse model of pulmonary tuberculosis, values of mice 1-6: unit not given here; details: Fig 4C
# [7] = format: in vivo, Crl:CD SD rats; details: single oral dose up to 2,000 mg/kg, SD rats, 2 weeks
# Method: Toxicity studies were conducted at Biotoxtech (Korea) under review and approval from IACUC (170842, 180144, 170889) of Biotoxtech. All animals used in the toxicity test were purchased from OrientBio (Korea).
# For acute toxicity study with a single oral administration, 6-week-old Crl:CD SD rats were used. For PP1S, a total of 8 groups (n = 4 rats/group) were used (0, 500, 1,000, and 2,000 mg/kg for females and males, respectively). For PP2S, a total of 4 groups (n = 5 rats/group) were used (0 and 2,000 mg/kg for females and males, respectively). […] Corn oil (Sigma, USA) was used as the vehicle. Control animals were treated only with the same volume of the vehicle.
# [8] = Acute oral toxicity test in mice; format: in vivo, BALB/c mice; details: single oral, 5 mice; for Deaths of mice, Days after dosing 0: day 0; for Deaths of mice, Days after dosing 1: day 1; for Deaths of mice, Days after dosing 2: day 2; for Deaths of mice, Days after dosing 3: day 3; for Deaths of mice, Days after dosing 4: day 4; for Deaths of mice, Days after dosing 5: day 5; for Deaths of mice, Days after dosing 6: day 6; for Deaths of mice, Days after dosing 7: day 7; for Deaths of mice, Days after dosing 8: day 8; for Deaths of mice, Days after dosing 9: day 9; for Deaths of mice, Days after dosing 10: day 10; for Deaths of mice, Days after dosing 11: day 11; for Deaths of mice, Days after dosing 12: day 12; for Deaths of mice, Days after dosing 13: day 13; for Deaths of mice, Days after dosing 14: day 14
# Method: This experiment was conducted in a toxicity test at Soonchunhyang University's Animal Biological Safety Level 2 (ABSL-2) facility. The study protocol was reviewed and approved by Soonchunhyang University Animal Ethics Committee. Six-week-old female BALB/c were purchased from Koatech (Pyeongtaek, Korea) and five mice per group were tested. Drugs were orally administered once using a zonde and observed for two weeks. Corn oil (Sigma, USA) was used as the vehicle.
# [9] = drug conc. 0.39, average of each replicate set
# [10] = drug conc. 0.78, average of each replicate set
# [11] = drug conc. 1.56, average of each replicate set
structure (smiles),measurement,setting,value
"COC(=O)[C@@H]1CCC(=O)N1Cc1cc2ccc(OC)cc2c2cc(OC)c(OC)cc12 [PP1S, (S)-N-[(2,3,6-Trimethoxy-10-phenanthryl)methyl]-pyroglutamic acid methyl ester]","RFU/200 μl (replicates1-3), single values",M. tuberculosis H37Rv [1]; drug conc. 0.39,59110 RFU/200 μl and 59240 RFU/200 μl and 59440 RFU/200 μl and 58960 RFU/200 μl and 59940 RFU/200 μl and 59150 RFU/200 μl and 59270 RFU/200 μl and 59190 RFU/200 μl and 59120 RFU/200 μl
same,RFU/ml (×104),M. tuberculosis H37Rv [1]; drug conc. 0.39,29.6 RFU/ml (×104)
same,RFU/200 μl (average),M. tuberculosis H37Rv [1]; [9],59447 RFU/200 μl and 59203 RFU/200 μl and 59157 RFU/200 μl
same,"RFU/200 μl (replicates1-3), single values",M. tuberculosis H37Rv [1]; drug conc. 0.78,53920 RFU/200 μl and 54090 RFU/200 μl and 54550 RFU/200 μl and 54830 RFU/200 μl and 54570 RFU/200 μl and 54130 RFU/200 μl and 54320 RFU/200 μl and 54040 RFU/200 μl and 53950 RFU/200 μl
same,RFU/ml (×104),M. tuberculosis H37Rv [1]; drug conc. 0.78,27.1 RFU/ml (×104)
same,RFU/200 μl (average),M. tuberculosis H37Rv [1]; [10],54650 RFU/200 μl and 54163 RFU/200 μl and 53987 RFU/200 μl
same,"RFU/200 μl (replicates1-3), single values",M. tuberculosis H37Rv [1]; drug conc. 1.56,29900 RFU/200 μl and 30040 RFU/200 μl and 30750 RFU/200 μl and 30860 RFU/200 μl and 30640 RFU/200 μl and 28310 RFU/200 μl and 28580 RFU/200 μl and 28120 RFU/200 μl and 29920 RFU/200 μl
same,RFU/ml (×104),M. tuberculosis H37Rv [1]; drug conc. 1.56,14.8 RFU/ml (×104)
same,RFU/200 μl (average),M. tuberculosis H37Rv [1]; [11],30750 RFU/200 μl and 28337 RFU/200 μl and 29953 RFU/200 μl
same,concentration with significant antitubercular effect,M. tuberculosis H37Rv [1]; fluorescence-based assay,1.56 µg/mL
same,"RFU/200 μl (replicates1-3), single values",XDR M. tuberculosis [2],28550 RFU/200 μl (2×) and 31600 RFU/200 μl and 31980 RFU/200 μl and 30880 RFU/200 μl and 29180 RFU/200 μl and 29520 RFU/200 μl and 28730 RFU/200 μl and 28570 RFU/200 μl and 47010 RFU/200 μl and 47100 RFU/200 μl and 48600 RFU/200 μl and 48210 RFU/200 μl and 50840 RFU/200 μl and 43460 RFU/200 μl and 43510 RFU/200 μl and 43540 RFU/200 μl and 47050 RFU/200 μl and 50580 RFU/200 μl and 50770 RFU/200 μl and 53600 RFU/200 μl and 53640 RFU/200 μl and 54810 RFU/200 μl and 45790 RFU/200 μl and 45690 RFU/200 μl and 45900 RFU/200 μl and 50680 RFU/200 μl
same,RFU/ml (×104),XDR M. tuberculosis [2],14.9 RFU/ml (×104) and 23.3 RFU/ml (×104) and 25.1 RFU/ml (×104)
same,concentration with significant antitubercular effect,XDR M. tuberculosis [2],1.56 µg/mL and 0.78 µg/mL
same,"RLU/50ul (replicates1-3), single values",M. tuberculosis H37Rv [3]; drug conc. 0.39,1910 RLU/50ul and 1870 RLU/50ul and 3370 RLU/50ul and 3410 RLU/50ul and 3790 RLU/50ul and 1810 RLU/50ul and 1790 RLU/50ul and 1970 RLU/50ul and 1850 RLU/50ul
same,RLU/ml (×100),M. tuberculosis H37Rv [3]; drug conc. 0.39,483.8 RLU/ml (×100)
same,RLU/50ul (average),M. tuberculosis H37Rv [3]; [9],3523 RLU/50ul and 1857 RLU/50ul and 1877 RLU/50ul
same,"RLU/50ul (replicates1-3), single values",M. tuberculosis H37Rv [3]; drug conc. 0.78,1380 RLU/50ul and 1580 RLU/50ul and 2750 RLU/50ul and 2760 RLU/50ul and 3450 RLU/50ul and 2020 RLU/50ul and 2180 RLU/50ul and 1970 RLU/50ul and 1410 RLU/50ul
same,RLU/ml (×100),M. tuberculosis H37Rv [3]; drug conc. 0.78,433.3 RLU/ml (×100)
same,RLU/50ul (average),M. tuberculosis H37Rv [3]; [10],2987 RLU/50ul and 2057 RLU/50ul and 1457 RLU/50ul
same,"RLU/50ul (replicates1-3), single values",M. tuberculosis H37Rv [3]; drug conc. 1.56,750 RLU/50ul and 850 RLU/50ul and 1460 RLU/50ul and 1290 RLU/50ul and 960 RLU/50ul and 1050 RLU/50ul and 1110 RLU/50ul and 1070 RLU/50ul and 790 RLU/50ul
same,RLU/ml (×100),M. tuberculosis H37Rv [3]; drug conc. 1.56,207.3 RLU/ml (×100)
same,RLU/50ul (average),M. tuberculosis H37Rv [3]; [11],1237 RLU/50ul and 1077 RLU/50ul and 797 RLU/50ul
same,concentration with significant antitubercular effect,M. tuberculosis H37Rv [3]; luminescence-based assay,1.56 µg/mL
same,growth of M. tuberculosis in macrophages (CFU),XDR M. tuberculosis [4],significantly inhibited the growth
same,"Efficacy in BALB/C mouse model of pulmonary tuberculosis, Average","M. tuberculosis H37Rv [5]; group dose 15, 6 mice",4150
same,"Efficacy in BALB/C mouse model of pulmonary tuberculosis, Average","M. tuberculosis H37Rv [5]; group dose 30, 6 mice",2508
same,reduction of bacterial load in lungs compared to drug-free group,"M. tuberculosis H37Rv [5]; mouse, in vivo",more than 90%
same,granulomatous lesions in lung sections (HE staining),"M. tuberculosis H37Rv [5]; mouse, in vivo, po",limited number of small granulomatous lesions
same,"Efficacy in BALB/C mouse model of pulmonary tuberculosis, Average","M. tuberculosis H37Rv [6]; group dose 30, 6 mice",2683333
same,"Efficacy in BALB/C mouse model of pulmonary tuberculosis, Average","M. tuberculosis H37Rv [6]; group dose 100, 6 mice",1028333
same,change in body weight compared to control group,[7],no significant change
same,clinical symptoms and death,[7],not observed
same,"Deaths of mice, Days after dosing 0",[8]; Dose 500 mg/kg,0
same,"Deaths of mice, Days after dosing 1",[8]; Dose 500 mg/kg,0
same,"Deaths of mice, Days after dosing 2",[8]; Dose 500 mg/kg,0
same,"Deaths of mice, Days after dosing 3",[8]; Dose 500 mg/kg,0
same,"Deaths of mice, Days after dosing 4",[8]; Dose 500 mg/kg,0
same,"Deaths of mice, Days after dosing 5",[8]; Dose 500 mg/kg,0
same,"Deaths of mice, Days after dosing 6",[8]; Dose 500 mg/kg,0
same,"Deaths of mice, Days after dosing 7",[8]; Dose 500 mg/kg,0
same,"Deaths of mice, Days after dosing 8",[8]; Dose 500 mg/kg,0
same,"Deaths of mice, Days after dosing 9",[8]; Dose 500 mg/kg,0
same,"Deaths of mice, Days after dosing 10",[8]; Dose 500 mg/kg,0
same,"Deaths of mice, Days after dosing 11",[8]; Dose 500 mg/kg,0
same,"Deaths of mice, Days after dosing 12",[8]; Dose 500 mg/kg,0
same,"Deaths of mice, Days after dosing 13",[8]; Dose 500 mg/kg,0
same,"Deaths of mice, Days after dosing 14",[8]; Dose 500 mg/kg,0
same,"Deaths of mice, Days after dosing 0",[8]; Dose 1000 mg/kg,0
same,"Deaths of mice, Days after dosing 1",[8]; Dose 1000 mg/kg,0
same,"Deaths of mice, Days after dosing 2",[8]; Dose 1000 mg/kg,0
same,"Deaths of mice, Days after dosing 3",[8]; Dose 1000 mg/kg,0
same,"Deaths of mice, Days after dosing 4",[8]; Dose 1000 mg/kg,0
same,"Deaths of mice, Days after dosing 5",[8]; Dose 1000 mg/kg,0
same,"Deaths of mice, Days after dosing 6",[8]; Dose 1000 mg/kg,0
same,"Deaths of mice, Days after dosing 7",[8]; Dose 1000 mg/kg,0
same,"Deaths of mice, Days after dosing 8",[8]; Dose 1000 mg/kg,0
same,"Deaths of mice, Days after dosing 9",[8]; Dose 1000 mg/kg,0
same,"Deaths of mice, Days after dosing 10",[8]; Dose 1000 mg/kg,0
same,"Deaths of mice, Days after dosing 11",[8]; Dose 1000 mg/kg,0
same,"Deaths of mice, Days after dosing 12",[8]; Dose 1000 mg/kg,0
same,"Deaths of mice, Days after dosing 13",[8]; Dose 1000 mg/kg,0
same,"Deaths of mice, Days after dosing 14",[8]; Dose 1000 mg/kg,0
same,"Deaths of mice, Days after dosing 0",[8]; Dose 2000 mg/kg,0
same,"Deaths of mice, Days after dosing 1",[8]; Dose 2000 mg/kg,0
same,"Deaths of mice, Days after dosing 2",[8]; Dose 2000 mg/kg,0
same,"Deaths of mice, Days after dosing 3",[8]; Dose 2000 mg/kg,0
same,"Deaths of mice, Days after dosing 4",[8]; Dose 2000 mg/kg,0
same,"Deaths of mice, Days after dosing 5",[8]; Dose 2000 mg/kg,0
same,"Deaths of mice, Days after dosing 6",[8]; Dose 2000 mg/kg,0
same,"Deaths of mice, Days after dosing 7",[8]; Dose 2000 mg/kg,0
same,"Deaths of mice, Days after dosing 8",[8]; Dose 2000 mg/kg,0
same,"Deaths of mice, Days after dosing 9",[8]; Dose 2000 mg/kg,0
same,"Deaths of mice, Days after dosing 10",[8]; Dose 2000 mg/kg,0
same,"Deaths of mice, Days after dosing 11",[8]; Dose 2000 mg/kg,0
same,"Deaths of mice, Days after dosing 12",[8]; Dose 2000 mg/kg,0
same,"Deaths of mice, Days after dosing 13",[8]; Dose 2000 mg/kg,0
same,"Deaths of mice, Days after dosing 14",[8]; Dose 2000 mg/kg,0
